Laboratory results: patent publication US20240025862A1, “SUBSTITUTED N-PHENYLURACILS AND SALTS THEREOF, AND USE THEREOF AS HERBICIDAL ACTIVE SUBSTANCES” (Bayer Aktiengesellschaft, priority 2020, published 2024)

Tests used:
Assay type in all cases: in vivo
Oryza sativa (ORYSA) = test: Post-emergence crop plant compatibility, greenhouse pot test (also comparative test C); settings: for Post-emergence action against ORYSA (crop plant compatibility): vs untreated controls
Method in brief: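 Visual damage versus untreated plants (0% = like control, 100% = plants died) was scored about 3 weeks after a post-emergence spray in greenhouse pots. Treatment: one-leaf stage, WP or EC in water at 600 l/ha with 0.5% additive; a/b/c mark different dosages on the same crop.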

Veronica persica (VERPE) = test: Post-emergence herbicidal action, greenhouse pot test
Method in brief: (§1)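 Activity was scored by eye about 3 weeks after treatment against untreated plants, where 100% means dead plants and 0% means no difference. Plants at the one-leaf stage received a foliar spray of WP or EC formulations in water plus 0.5% additive (600 l/ha, up to 20 g/ha). Plants were grown in sandy loam pots in a greenhouse for 2–3 weeks before spraying.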

Viola tricolor (VIOTR) = test: as above
Method in brief: as §1

[1] = system: Amaranthus retroflexus (AMARE); test: as above; settings: rated visually after about 3 weeks vs untreated controls, 100% = plants have died
Method in brief: as §1

[2] = system: Pharbitis purpurea (PHBPU); test: as above
Method in brief: as §1

[3] = system: Abutilon theophrasti (ABUTH); test: as above; settings: rated visually after about 3 weeks vs untreated controls, 100% = plants have died
Method in brief: as §1

Lolium rigidum (LOLRI) = test: as above; settings: dosage 20 g/ha
Method in brief: as §1

[4] = system: Polygonum convolvulus (POLCO); test: as above
Method in brief: as §1

[5] = system: Matricaria inodora (MATIN); test: Post-emergence herbicidal action, greenhouse pot test (also comparative test C)
Method in brief: (§2)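 Green parts of one-leaf-stage plants are sprayed at 600 l/ha with formulated compound plus 0.5% additive, then kept under optimum greenhouse conditions for about 3 weeks. Damage is scored visually, where 100% means dead plants and 0% means no difference from controls.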

Setaria viridis (SETVI) = test: as above; settings: for Post-emergence action against SETVI: 20 g/ha
Method in brief: as §2

[6] = system: Alopecurus myosuroides (ALOMY); test: as above; settings: rated visually after about 3 weeks vs untreated controls, 100% = plants have died
Method in brief: as §2

[7] = system: Echinochloa crus-galli (ECHCG); test: as above; settings: for Post-emergence action at 1.25 g/ha against ECHCG in %: rated visually after about 3 weeks vs untreated controls, 100% = plants have died
Method in brief: as §2

Zea mays (ZEAMX) = test: Post-emergence crop plant compatibility, greenhouse pot test; settings: 1.25 g/ha, vs untreated controls
Method in brief: (§3)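 Visual % damage vs untreated controls, scored ~3 weeks post-spray (100% = dead, 0% = as control). Plants in sandy loam, greenhouse; treated at one-leaf stage, 2–3 wk after sowing. WP/EC, aqueous, 0.5% additive, 600 l/ha. Suffixes a/b/c = different dosages.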

[8] = system: Triticum aestivum (TRZAS); test: as above; settings: vs untreated controls
Method in brief: as §3

Glycine max (GLXMA) = test: as above; settings: 1.25 g/ha
Method in brief: as §3

Avena fatua (AVEFA) = test: Post-emergence herbicidal action, greenhouse pot test; settings: 20 g/ha, rated visually after about 3 weeks vs untreated controls, 100% = plants have died
Method in brief: as §1

Row | Compound | Post-emergence action against ORYSA (crop plant compatibility) (Oryza sativa (ORYSA); 1.25 g/ha) [%] | Post-emergence action against VERPE (Veronica persica (VERPE); 1.25 g/ha) [%] | Post-emergence action against VERPE (Veronica persica (VERPE); 5 g/ha) [%] | Post-emergence action against VERPE (Veronica persica (VERPE); 20 g/ha) [%] | Post-emergence action against VIOTR (Viola tricolor (VIOTR); 1.25 g/ha) [%] | Post-emergence action against VIOTR (Viola tricolor (VIOTR); 5 g/ha) [%] | Post-emergence action against VIOTR (Viola tricolor (VIOTR); 20 g/ha) [%] | Post-emergence action at 1.25 g/ha against AMARE in % [1] [%] | Post-emergence action at 5 g/ha against AMARE in % [1] [%] | Post-emergence action at 20 g/ha against AMARE in % [1] [%] | Post-emergence action against PHBPU in % ([2]; dosage 1.25 g/ha) [%] | Post-emergence action against PHBPU in % ([2]; dosage 5 g/ha) [%] | Post-emergence action against PHBPU in % ([2]; dosage 20 g/ha) [%] | Post-emergence action at 1.25 g/ha against ABUTH in % [3] [%] | Post-emergence action at 5 g/ha against ABUTH in % [3] [%] | Post-emergence action at 20 g/ha against ABUTH in % [3] [%] | Post-emergence action against LOLRI in % (Lolium rigidum (LOLRI)) [%] | Post-emergence action against POLCO in % ([4]; dosage 5 g/ha) [%] | Post-emergence action against POLCO in % ([4]; dosage 20 g/ha) [%] | Post-emergence action against MATIN in % ([5]; dosage 5 g/ha) [%] | also measured
1 | CCOCCOC(=O)COc1ccccc1Oc1cc(-n2c(=O)cc(C(F)(F)F)n(C)c2=O)c(F)cc1[N+](=O)[O-] [I.6-2] | 0 | 100 | 100 | 100 | 100 | 100 | 100 | 100 | 100 | 100 | 100 | 100 | 100 | 100 | 100 | 100 | 90 | 100 | 100 | 90 | Post-emergence action against ORYSA (crop plant compatibility) (Oryza sativa (ORYSA); 5 g/ha): 0%; Post-emergence action against ORYSA in % (Oryza sativa (ORYSA); 20 g/ha, crop plant compatibility): 20%; Post-emergence action against MATIN in % ([5]; dosage 20 g/ha): 100%; Post-emergence action against SETVI (Setaria viridis (SETVI)): 100%; Post-emergence action against SETVI in % (Setaria viridis (SETVI); dosage 1.25 g/ha): 100%; Post-emergence action against SETVI in % (Setaria viridis (SETVI); dosage 5 g/ha): 100%; Post-emergence action at 20 g/ha against ALOMY in % [6]: 90%; Post-emergence action against ECHCG in % ([7]; dosage 5 g/ha): 90%; Post-emergence action against ECHCG in % ([7]; dosage 20 g/ha): 100%; Post-emergence action against ZEAMX (crop plant compatibility) (Zea mays (ZEAMX)): 20%; Post-emergence action against TRZAS (crop plant compatibility) ([8]; 1.25 g/ha): 20%; Post-emergence action against TRZAS (crop plant compatibility) ([8]; 5 g/ha): 20%; Post-emergence action against GLXMA in % (Glycine max (GLXMA)): 20%
2 | Cn1c(C(F)(F)F)cc(=O)n(-c2cc(Oc3ccccc3OCC(=O)OCC3CCOC3)c(Cl)cc2F)c1=O (stereo not drawn) [I.7-72] | 0 | 90 | 100 | 100 | 100 | 100 | 100 | 100 | 100 | 100 | 100 | 100 | 100 | 100 | 100 | 100 | 80 | 100 | 100 | 100 | Post-emergence action at 20 g/ha against AVEFA in % (Avena fatua (AVEFA)): 100%; Post-emergence action against POLCO in % ([4]; dosage 1.25 g/ha): 80%; Post-emergence action against MATIN in % ([5]; dosage 20 g/ha): 100%; Post-emergence action against SETVI (Setaria viridis (SETVI)): 100%; Post-emergence action against SETVI in % (Setaria viridis (SETVI); dosage 1.25 g/ha): 100%; Post-emergence action against SETVI in % (Setaria viridis (SETVI); dosage 5 g/ha): 100%; Post-emergence action at 20 g/ha against ALOMY in % [6]: 100%; Post-emergence action at 1.25 g/ha against ECHCG in % [7]: 80%; Post-emergence action against ECHCG in % ([7]; dosage 5 g/ha): 100%; Post-emergence action against ECHCG in % ([7]; dosage 20 g/ha): 100%; Post-emergence action against ZEAMX (crop plant compatibility) (Zea mays (ZEAMX)): 20%; Post-emergence action against TRZAS (crop plant compatibility) ([8]; 1.25 g/ha): 10%
3 | Cn1c(C(F)(F)F)cc(=O)n(-c2cc(Oc3ccccc3OCC(=O)OCCC#N)c(Cl)cc2F)c1=O [I.7-179] | 0 | 100 | 100 | 100 | 100 | 100 | 100 | 100 | 100 | 100 | 100 | 100 | 100 | 100 | 100 | 100 | 100 | 100 | 100 | 100 | Post-emergence action at 20 g/ha against AVEFA in % (Avena fatua (AVEFA)): 80%; Post-emergence action against MATIN in % ([5]; dosage 1.25 g/ha): 80%; Post-emergence action against MATIN in % ([5]; dosage 20 g/ha): 100%; Post-emergence action against SETVI (Setaria viridis (SETVI)): 100%; Post-emergence action against SETVI in % (Setaria viridis (SETVI); dosage 1.25 g/ha): 100%; Post-emergence action against SETVI in % (Setaria viridis (SETVI); dosage 5 g/ha): 100%; Post-emergence action at 20 g/ha against ALOMY in % [6]: 100%; Post-emergence action against ECHCG in % ([7]; dosage 5 g/ha): 100%; Post-emergence action against ECHCG in % ([7]; dosage 20 g/ha): 100%; Post-emergence action against ZEAMX (crop plant compatibility) (Zea mays (ZEAMX)): 0%; Post-emergence action against TRZAS (crop plant compatibility) ([8]; 1.25 g/ha): 0%; Post-emergence action against TRZAS (crop plant compatibility) ([8]; 5 g/ha): 0%
4 | COCCOC(=O)COc1ccccc1Oc1cc(-n2c(=O)cc(C(F)(F)F)n(C)c2=O)c(F)cc1Br [I.8-1] | 0 | 100 | 100 | 100 | 100 | 100 | 100 | 100 | 100 | 100 | 100 | 100 | 100 | 100 | 100 | 100 | 80 | 100 | 100 | 100 | Post-emergence action against ORYSA (crop plant compatibility) (Oryza sativa (ORYSA); 5 g/ha): 20%; Post-emergence action at 20 g/ha against AVEFA in % (Avena fatua (AVEFA)): 80%; Post-emergence action against POLCO in % ([4]; dosage 1.25 g/ha): 90%; Post-emergence action against MATIN in % ([5]; dosage 1.25 g/ha): 100%; Post-emergence action against MATIN in % ([5]; dosage 20 g/ha): 100%; Post-emergence action against SETVI (Setaria viridis (SETVI)): 100%; Post-emergence action against SETVI in % (Setaria viridis (SETVI); dosage 1.25 g/ha): 100%; Post-emergence action against SETVI in % (Setaria viridis (SETVI); dosage 5 g/ha): 100%; Post-emergence action at 5 g/ha against ALOMY in % [6]: 100%; Post-emergence action at 20 g/ha against ALOMY in % [6]: 100%; Post-emergence action at 1.25 g/ha against ECHCG in % [7]: 80%; Post-emergence action against ECHCG in % ([7]; dosage 5 g/ha): 100%; Post-emergence action against ECHCG in % ([7]; dosage 20 g/ha): 100%; Post-emergence action against ZEAMX (crop plant compatibility) (Zea mays (ZEAMX)): 20%; Post-emergence action against TRZAS (crop plant compatibility) ([8]; 1.25 g/ha): 20%
5 | Cn1c(C(F)(F)F)cc(=O)n(-c2cc(Oc3ccccc3OCC(=O)OCc3ccccn3)c(Br)cc2F)c1=O [I.8-276] | 20 | 100 | 100 | 100 | 100 | 100 | 100 | 100 | 100 | 100 | 100 | 100 | 100 | 100 | 100 | 100 | 100 | 100 | 100 | 80 | Post-emergence action at 20 g/ha against AVEFA in % (Avena fatua (AVEFA)): 80%; Post-emergence action against MATIN in % ([5]; dosage 1.25 g/ha): 80%; Post-emergence action against MATIN in % ([5]; dosage 20 g/ha): 100%; Post-emergence action against SETVI (Setaria viridis (SETVI)): 100%; Post-emergence action against SETVI in % (Setaria viridis (SETVI); dosage 1.25 g/ha): 100%; Post-emergence action against SETVI in % (Setaria viridis (SETVI); dosage 5 g/ha): 100%; Post-emergence action at 5 g/ha against ALOMY in % [6]: 80%; Post-emergence action at 20 g/ha against ALOMY in % [6]: 100%; Post-emergence action against ECHCG in % ([7]; dosage 5 g/ha): 100%; Post-emergence action against ECHCG in % ([7]; dosage 20 g/ha): 100%; Post-emergence action against ZEAMX (crop plant compatibility) (Zea mays (ZEAMX)): 20%; Post-emergence action against TRZAS (crop plant compatibility) ([8]; 1.25 g/ha): 20%; Post-emergence action against TRZAS (crop plant compatibility) ([8]; 5 g/ha): 20%
